The values below come from ChEMBL document CHEMBL6103570, “An endoplasmic reticulum and lipid droplets dual-localized strategy to develop small molecular photosensitizers that induce ferroptosis during photodynamic therapy” (Eur J Med Chem, 2025).

The subject of data set [1] is 4T1. Briefly: Induction of intracellular ROS generation in mouse 4T1 cells assessed as increase in green fluorescence intensity at 5 to 60 nM incubated in dark for 24 hrs followed by compound removal and measured after 5 mins under 20 mW/cm2H2 white light irradiation in presence of NaN3 by H2-DCFDA staining based fluorescence assay. To be noted: dose 5-60 nM. Format: functional, cell-based.

A short description of data set [2]: Phototoxicity in human MDA-MB-231 cells assessed as cell viability preincubated for 24 hrs followed by white light irradiation at 20 mW/cm2 for 10 mins and measured after 24 hrs by MTT assay. To be noted: MDA-MB-231, light or radiation study. The format is functional, cell-based. (Tetrazolium assays rely on reduction of a dye to a coloured formazan, in cell work by metabolically active cells.)

For data set [3], the system named is 4T1. Briefly: Upregulation of Chac1 mRNA expression in mouse 4T1 cells at 10 nM preincubated for 24 hrs followed by […] white light irradiation for 10 mins and measured after 12 hrs by qRT-PCR analysis. The format is functional, cell-based. The settings on record: time 2170.0 min. (Real-time PCR tracks product formation cycle by cycle.)
The test system of data set [4] is 4T1. The data set can be described thus: Induction of ferroptosis in mouse 4T1 cells assessed as cell viability at 30 nM preincubated for 24 hrs followed by white light irradiation at 20 mW/cm2 and measured after 24 hrs in presence of Z-VAD-FMK by MTT assay. The settings on record: time 48.0 hrs. The format is functional, cell-based.
A short description of data set [5]: Drug localization in Lipid droplet of mouse 4T1 cells assessed as increase in green fluorescence by measuring pearson correlation coefficient at 2 uM incubated for 12 hrs by confocal scanning microscopy analysis. Format: ADME, subcellular. To be noted: 4t1, 12 h.
Data set [6] has as its system MDA-MB-231. The data set can be described thus: Upregulation of Acsl4 mRNA expression in human MDA-MB-231 cells at 10 nM preincubated for 24 hrs followed by […] white light irradiation for 10 mins and measured after 12 hrs by qRT-PCR analysis. Format: functional, cell-based. The settings on record: time 2170.0 min.
Data set [7] is described as follows: Darktoxicity in human MDA-MB-231 cells assessed as cell viability preincubated for 24 hrs followed by incubation under dark condition for 24 hrs by MTT assay. The format is toxicity, cell-based. To be noted: time 48 hrs.
In data set [8] the test system is 4T1. Briefly: Upregulation of Hmox1 mRNA expression in mouse 4T1 cells at 10 nM under light irradiation by KEGG analysis. The format is functional, cell-based.
The subject of data set [9] is MDA-MB-231. Briefly: Upregulation of Chac1 mRNA expression in human MDA-MB-231 cells at 10 nM preincubated for 24 hrs followed by […] white light irradiation for 10 mins and measured after 12 hrs by qRT-PCR analysis. Format: functional, cell-based. The settings on record: time 2170.0 min.
Data set [10] in a line: Photo selectivity index, ratio of CC50 for darktoxicity in mouse 4T1 cells assessed as cell viability preincubated for 24 hrs followed by incubation under dark condition for 24 hrs by MTT assay to IC50 for phototoxicity in mouse 4T1 cells assessed as cell viability preincubated for 24 hrs followed by white light irradiation at 20 mW/cm2 for 10 mins and measured after 24 hrs by MTT assay. To be noted: read-out: Ratio CC50/IC50. The format is toxicity, cell-based.

Data set [11] concerns 4T1. Briefly: Induction of ferroptosis in mouse 4T1 cells assessed as increase in intracellular lipid peroxidation accumulation by measuring increase in green fluorescence at 30 nM preincubated for 24 hrs followed by 30 mW/cm2 green light irradiation for 4 mins by C11 BODIPY 581/591 staining based analysis. To be noted: time 1444.0 min. The format is functional, cell-based.

Data set [12] has as its system 4T1. The data set can be described thus: Upregulation of […] mRNA expression in mouse 4T1 cells at 10 nM preincubated for 24 hrs followed by […] white light irradiation for 10 mins and measured after 12 hrs by qRT-PCR analysis. The format is functional, cell-based. The settings on record: time 2170.0 min.
Data set [13] can be described thus: Potency index, ratio of IC50 for Chlorin e6 to IC50 for test compound for phototoxicity in human MDA-MB-231 cells assessed as cell viability preincubated for 24 hrs followed by white light irradiation at 20 mW/cm2 for 10 mins and measured after 24 hrs by MTT assay. The settings on record: time 48 hrs. The format is functional.
Data set [14] concerns 4T1. The data set can be described thus: Induction of ferroptosis in mouse 4T1 cells assessed as cell viability at 30 nM preincubated for 24 hrs followed by white light irradiation at 20 mW/cm2 and measured after 24 hrs in presence of Fer-1 by MTT assay. The format is functional, cell-based. To be noted: time 48.0 hrs.
Data set [15] can be described thus: Photo selectivity index, ratio of CC50 for darktoxicity in human MCF7 cells assessed as cell viability preincubated for 24 hrs followed by incubation under dark condition for 24 hrs by MTT assay to IC50 for phototoxicity in human MCF7 cells assessed as cell viability preincubated for 24 hrs followed by white light irradiation at 20 mW/cm2 for 10 mins and measured after 24 hrs by MTT assay. To be noted: read-out: Ratio CC50/IC50. Format: toxicity, cell-based.

The test system of data set [16] is 4T1. Briefly: Induction of ferroptosis in mouse 4T1 cells assessed as cell viability at 30 nM preincubated for 24 hrs followed by white light irradiation at 20 mW/cm2 and measured after 24 hrs in presence of Nec-1 by MTT assay. The format is functional, cell-based. The settings on record: time 48.0 hrs.
Data set [17] can be described thus: Photosensitizing ability of the compound in NaOH assessed as fluorescence quantum yield. The format is functional.
The subject of data set [18] is 4T1. Briefly: Upregulation of Hmox1 mRNA expression in mouse 4T1 cells at 10 nM preincubated for 24 hrs followed by […] white light irradiation for 10 mins and measured after 12 hrs by qRT-PCR analysis. Format: functional, cell-based. To be noted: time 2170.0 min.
The test system of data set [19] is 4T1. The data set can be described thus: Induction of ferroptosis in mouse 4T1 cells assessed as cell viability at 30 nM preincubated for 24 hrs followed by white light irradiation at 20 mW/cm2 and measured after 24 hrs in presence of 3-MA by MTT assay. To be noted: time 48.0 hrs. The format is functional, cell-based.
Data set [20] is described as follows: Drug localization in endoplasmic reticulum of mouse 4T1 cells assessed as increase in green fluorescence at 2 uM incubated for 12 hrs by confocal scanning microscopy analysis. The settings on record: 4t1, 12 h. Format: ADME, subcellular.
Data set [21] can be described thus: Darktoxicity in human Bcap37 cells assessed as cell viability preincubated for 24 hrs followed by incubation under dark condition for 24 hrs by MTT assay. To be noted: time 48 hrs. The format is toxicity, cell-based.
The test system of data set [22] is 4T1. The data set can be described thus: Induction of intracellular ROS generation in mouse 4T1 cells assessed as increase in green fluorescence intensity at 5 to 60 nM incubated in dark for 24 hrs followed by compound removal and measured after 5 mins under 20 mW/cm2H2 white light irradiation by H2-DCFDA staining based fluorescence assay. Format: functional, cell-based. To be noted: dose 5-60 nM.

Data set [23] can be described thus: Phototoxicity in human MCF7 cells assessed as cell viability preincubated for 24 hrs followed by white light irradiation at 20 mW/cm2 for 10 mins and measured after 24 hrs by MTT assay. Format: functional, cell-based. To be noted: MCF7, light or radiation study.
The nature of data set [24]: Photo selectivity index, ratio of CC50 for darktoxicity in human MDA-MB-231 cells assessed as cell viability preincubated for 24 hrs followed by incubation under dark condition for 24 hrs by MTT assay to IC50 for phototoxicity in human MDA-MB-231 cells assessed as cell viability preincubated for 24 hrs followed by white light irradiation at 20 mW/cm2 for 10 mins and measured after 24 hrs by MTT assay. Format: toxicity, cell-based. To be noted: read-out: Ratio CC50/IC50.

Data set [25] in a line: Phototoxicity in human Bcap37 cells assessed as cell viability preincubated for 24 hrs followed by white light irradiation at 20 mW/cm2 for 10 mins and measured after 24 hrs by MTT assay. Format: functional, cell-based. To be noted: Bcap37, light or radiation study.
For data set [26], the system named is 4T1. Briefly: Upregulation of Acsl4 mRNA expression in mouse 4T1 cells at 10 nM under light irradiation by KEGG analysis. Format: functional, cell-based.
Data set [27] concerns MDA-MB-231. Briefly: Upregulation of Hmox1 mRNA expression in human MDA-MB-231 cells at 10 nM preincubated for 24 hrs followed by […] white light irradiation for 10 mins and measured after 12 hrs by qRT-PCR analysis. Format: functional, cell-based. The settings on record: time 2170.0 min.
The subject of data set [28] is 4T1. Briefly: Induction of ferroptosis in mouse 4T1 cells assessed as increase in MDA level at 15 nM preincubated in dark condition for 24 hrs followed by 20mW/cm2 white light irradiation for 10 mins and measured after 6 hrs by colorimetric assay. The format is functional, cell-based. The settings on record: time 1810.0 min.
Data set [29] in a line: Photo selectivity index, ratio of CC50 for darktoxicity in human Bcap37 cells assessed as cell viability preincubated for 24 hrs followed by incubation under dark condition for 24 hrs by MTT assay to IC50 for phototoxicity in human Bcap37 cells assessed as cell viability preincubated for 24 hrs followed by white light irradiation at 20 mW/cm2 for 10 mins and measured after 24 hrs by MTT assay. The format is toxicity, cell-based. The settings on record: read-out: Ratio CC50/IC50.

Data set [30] can be described thus: Photosensitizing ability of the compound in EtOH assessed as singlet oxygen quantum yield at 100 nM under 520nm 30 mW/cm2 light irradiation by DPBF reagent based analysis. Format: functional.
Data set [31] in a line: Darktoxicity in human MCF7 cells assessed as cell viability preincubated for 24 hrs followed by incubation under dark condition for 24 hrs by MTT assay. The format is toxicity, cell-based. To be noted: time 48 hrs.
A short description of data set [32]: Phototoxicity in mouse 4T1 cells assessed as cell viability preincubated for 24 hrs followed by white light irradiation at 20 mW/cm2 for 10 mins and measured after 24 hrs by MTT assay. The format is functional, cell-based. The settings on record: 4T1, light or radiation study.
The test system of data set [33] is 4T1. Briefly: Induction of ferroptosis in mouse 4T1 cells assessed as decrease in intracellular GSH level at 15 nM preincubated in dark condition for 24 hrs followed by 20mW/cm2 white light irradiation for 10 mins and measured after 12 hrs by colorimetric assay. The format is functional, cell-based. To be noted: time 2170.0 min.
Data set [34] has as its system 4T1. Briefly: Upregulation of Chac1 mRNA expression in mouse 4T1 cells at 10 nM under light irradiation by KEGG analysis. Format: functional, cell-based.
Data set [35] has as its system 4T1. The data set can be described thus: Induction of ferroptosis in mouse 4T1 cells assessed as increase in intracellular lipid peroxidation accumulation by measuring increase in green fluorescence at 30 nM incubated under dark condition for 24 hrs by C11 BODIPY 581/591 staining based analysis. The format is functional, cell-based.
Data set [36] is described as follows: Drug localization in Lipid droplet of mouse 4T1 cells assessed as increase in green fluorescence at 2 uM incubated for 12 hrs by confocal scanning microscopy analysis. Format: ADME, subcellular. The settings on record: 4t1, 12 h.
Data set [37] is described as follows: Darktoxicity in mouse 4T1 cells assessed as cell viability preincubated for 24 hrs followed by incubation under dark condition for 24 hrs by MTT assay. The format is toxicity, cell-based. The settings on record: time 48 hrs.

Each structure is given as a SMILES string. Calls of active or inactive are those of the source. The rule behind the calls is not given here.

On to `CC1=C(I)C(C)=[N+]2C1=C(c1nccc3c1[nH]c1ccccc13)c1c(C)c(I)c(C)n1[B-]2(F)F`, for which the outcome in data set [1], in [4], in data set [16], in data set [19] and in [35] was inactive. The IC50 (usually the concentration that gives 50% inhibition) in data set [2] is 33 nM; in [23], 41 nM; in data set [25], 26 nM; in [32], 23 nM. For the same compound, the result in [3], in [6], in data set [8], in [9], in data set [11] and in [12] was Active. For the same compound, the outcome in data set [14], in [18], in [22], in data set [26], in data set [27] and in data set [28] was Active. Besides, the outcome in [33] and in data set [34] was Active. Further, the Activity in data set [5] came out at 0.84; in data set [17], 0.19; in [30], 0.73. The CC50 (as a rule, the concentration at which the toxic effect on the cells reaches its halfway point) at 24 h in data set [7] was 27600 nM; in [21], greater than 100000 nM; in [31], greater than 100000 nM. Besides, the selectivity ratio in data set [10] is 18; in data set [15], greater than 2430; in data set [24], 835; in [29] it was greater than 3880. In addition, in data set [13], the “Ratio IC50” value was 38. Also, the Drug uptake entry in data set [20] and in data set [36] was “Active” in each case.
`C=Cc1c(C)c2cc3nc(c(CC(=O)O)c4[nH]c(cc5nc(cc1[nH]2)C(C)=C5CC)c(C)c4C(=O)O)[C@@H](CCC(=O)O)[C@@H]3C` [CHLORIN E6]: the IC50 in [2] was determined as 1170 nM; in data set [23], 850 nM; in data set [25], 1270 nM; in data set [32], 862 nM. Moreover, the CC50 at 24 h in [37], in data set [7], in [21] and in data set [31] was greater than 50000 nM throughout. In addition, the selectivity ratio is greater than 58 in data set [10], greater than 59 in [15], greater than 43 in [24] and greater than 39 in [29].
